From ChEMBL document CHEMBL3885881, “DrugMatrix”

Organism: Rattus norvegicus
Experiment: DrugMatrix - Regimen: Daily Repeat
Type: toxicity, organism-based, Sprague-Dawley
Set-up: regimen Daily Repeat, gender Male, age 6-8 weeks
Conditions: in vivo, vehicle 100 % SALINE; for SODIUM / TOTAL BILIRUBIN / TOTAL PROTEIN / URIC ACID / ALANINE AMINOTRANSFERASE / ALBUMIN / ALKALINE PHOSPHATASE / ASPARTATE AMINOTRANSFERASE / BLOOD UREA NITROGEN / CARBON DIOXIDE / CHLORIDE / CHOLESTEROL / CREATINE PHOSPHOKINASE / CREATININE / GLUCOSE / LACTATE DEHYDROGENASE / LIPASE / PHOSPHORUS / POTASSIUM: tissue Plasma; for ABSOLUTE BASOPHIL / ABSOLUTE EOSINOPHIL / ABSOLUTE LYMPHOCYTE / ABSOLUTE MONOCYTE / ABSOLUTE SEGMENTED NEUTROPHIL / BASOPHIL / EOSINOPHIL / ERYTHROCYTE COUNT / HEMATOCRIT / HEMOGLOBIN / LEUKOCYTE COUNT / LYMPHOCYTE / MEAN CORPUSCULAR HEMOGLOBIN / MEAN CORPUSCULAR HEMOGLOBIN CONCENTRATION / MEAN CORPUSCULAR VOLUME / MONOCYTE / NEUTROPHIL / NUCLEATED RED BLOOD CELLS / PLATELET COUNT: tissue Blood
[1] = ip, 40 mg/kg, […], route intraperitoneal, dose level High, time 28 day
[2] = iv, 41 mg/kg, 72 h, dose level High, time 3 day
[3] = iv, 41 mg/kg, 120 h, dose level High, time 5 day
[4] = iv, […], 72 h, dose 4.1 mg/Kg, dose level Low, time 3 day
[5] = iv, […], 120 h, dose 4.1 mg/Kg, dose level Low, time 5 day

CCN[C@@H]1C[C@H](N)[C@@H](O[C@H]2OC(CN)=CC[C@H]2N)[C@H](O)[C@H]1O[C@H]1OC[C@](C)(O)[C@H](NC)[C@H]1O [NETILMICIN]
SODIUM [1]: 152.1 MEQ/L
TOTAL BILIRUBIN [1]: 0.18 mg/dL
TOTAL PROTEIN [1]: 6.45 G/DL
URIC ACID [1]: 1.03 mg/dL
ABSOLUTE BASOPHIL [2]: 0 CELLS/uL
ABSOLUTE EOSINOPHIL [2]: 0 CELLS/uL
ABSOLUTE LYMPHOCYTE [2]: 13244.67 CELLS/uL
ABSOLUTE MONOCYTE [2]: 92.33 CELLS/uL
ABSOLUTE SEGMENTED NEUTROPHIL [2]: 896.33 CELLS/uL
BASOPHIL [2]: 0%
EOSINOPHIL [2]: 0%
ERYTHROCYTE COUNT [2]: 5.54 x10E6/uL
HEMATOCRIT [2]: 34.4%
HEMOGLOBIN [2]: 13.9 G/DL
LEUKOCYTE COUNT [2]: 14.23 x10E3/uL
LYMPHOCYTE [2]: 93%
MEAN CORPUSCULAR HEMOGLOBIN [2]: 25.07 pg
MEAN CORPUSCULAR HEMOGLOBIN CONCENTRATION [2]: 40.4 G/DL
MEAN CORPUSCULAR VOLUME [2]: 62.1 fL
MONOCYTE [2]: 0.67%
NEUTROPHIL [2]: 6.33%
NUCLEATED RED BLOOD CELLS [2]: 0 /100WBC
PLATELET COUNT [2]: 1289.67 x10E3/uL
ALANINE AMINOTRANSFERASE [2]: 47 u/L
ALBUMIN [2]: 4.27 G/DL
ALKALINE PHOSPHATASE [2]: 408.33 u/L
ASPARTATE AMINOTRANSFERASE [2]: 78.67 u/L
BLOOD UREA NITROGEN [2]: 16.33 mg/dL
CARBON DIOXIDE [2]: 32 mmol/L
CHLORIDE [2]: 102.67 MEQ/L
CHOLESTEROL [2]: 64.33 mg/dL
CREATINE PHOSPHOKINASE [2]: 176 u/L
CREATININE [2]: 0.16 mg/dL
GLUCOSE [2]: 156.33 mg/dL
LACTATE DEHYDROGENASE [2]: 111.67 u/L
LIPASE [2]: 9.33 u/L
PHOSPHORUS [2]: 12.53 mg/dL
POTASSIUM [2]: 7.26 MEQ/L
SODIUM [2]: 144.53 MEQ/L
TOTAL BILIRUBIN [2]: 0.23 mg/dL
TOTAL PROTEIN [2]: 5.97 G/DL
URIC ACID [2]: 1.77 mg/dL
ABSOLUTE BASOPHIL [3]: 0 CELLS/uL
ABSOLUTE EOSINOPHIL [3]: 0 CELLS/uL
ABSOLUTE LYMPHOCYTE [3]: 14425.67 CELLS/uL
ABSOLUTE MONOCYTE [3]: 210.67 CELLS/uL
ABSOLUTE SEGMENTED NEUTROPHIL [3]: 463.67 CELLS/uL
BASOPHIL [3]: 0%
EOSINOPHIL [3]: 0%
ERYTHROCYTE COUNT [3]: 5.76 x10E6/uL
HEMATOCRIT [3]: 36.3%
HEMOGLOBIN [3]: 14.47 G/DL
LEUKOCYTE COUNT [3]: 15.1 x10E3/uL
LYMPHOCYTE [3]: 95.67%
MEAN CORPUSCULAR HEMOGLOBIN [3]: 25.1 pg
MEAN CORPUSCULAR HEMOGLOBIN CONCENTRATION [3]: 39.87 G/DL
MEAN CORPUSCULAR VOLUME [3]: 62.97 fL
MONOCYTE [3]: 1.33%
NEUTROPHIL [3]: 3%
NUCLEATED RED BLOOD CELLS [3]: 0.33 /100WBC
PLATELET COUNT [3]: 1375.67 x10E3/uL
ALANINE AMINOTRANSFERASE [3]: 52 u/L
ALBUMIN [3]: 4.33 G/DL
ALKALINE PHOSPHATASE [3]: 313.33 u/L
ASPARTATE AMINOTRANSFERASE [3]: 87.67 u/L
BLOOD UREA NITROGEN [3]: 18.33 mg/dL
CARBON DIOXIDE [3]: 35 mmol/L
CHLORIDE [3]: 100.33 MEQ/L
CHOLESTEROL [3]: 60.67 mg/dL
CREATINE PHOSPHOKINASE [3]: 309.33 u/L
CREATININE [3]: 0.19 mg/dL
GLUCOSE [3]: 145.33 mg/dL
LACTATE DEHYDROGENASE [3]: 281 u/L
LIPASE [3]: 10.33 u/L
PHOSPHORUS [3]: 11.93 mg/dL
POTASSIUM [3]: 7.18 MEQ/L
SODIUM [3]: 145.03 MEQ/L
TOTAL BILIRUBIN [3]: 0.17 mg/dL
TOTAL PROTEIN [3]: 6.23 G/DL
URIC ACID [3]: 1.8 mg/dL
ABSOLUTE BASOPHIL [4]: 0 CELLS/uL
ABSOLUTE EOSINOPHIL [4]: 0 CELLS/uL
ABSOLUTE LYMPHOCYTE [4]: 4768 CELLS/uL
ABSOLUTE MONOCYTE [4]: 54 CELLS/uL
ABSOLUTE SEGMENTED NEUTROPHIL [4]: 578 CELLS/uL
BASOPHIL [4]: 0%
EOSINOPHIL [4]: 0%
ERYTHROCYTE COUNT [4]: 5.02 x10E6/uL
HEMATOCRIT [4]: 31.53%
HEMOGLOBIN [4]: 12.37 G/DL
LEUKOCYTE COUNT [4]: 5.4 x10E3/uL
LYMPHOCYTE [4]: 88.33%
MEAN CORPUSCULAR HEMOGLOBIN [4]: 24.67 pg
MEAN CORPUSCULAR HEMOGLOBIN CONCENTRATION [4]: 39.23 G/DL
MEAN CORPUSCULAR VOLUME [4]: 62.83 fL
MONOCYTE [4]: 1%
NEUTROPHIL [4]: 10.67%
NUCLEATED RED BLOOD CELLS [4]: 0.33 /100WBC
PLATELET COUNT [4]: 1171 x10E3/uL
ALANINE AMINOTRANSFERASE [4]: 52.33 u/L
ALBUMIN [4]: 4.23 G/DL
ALKALINE PHOSPHATASE [4]: 370.33 u/L
ASPARTATE AMINOTRANSFERASE [4]: 91.67 u/L
BLOOD UREA NITROGEN [4]: 16 mg/dL
CARBON DIOXIDE [4]: 33.67 mmol/L
CHLORIDE [4]: 99.33 MEQ/L
CHOLESTEROL [4]: 62 mg/dL
CREATINE PHOSPHOKINASE [4]: 447.67 u/L
CREATININE [4]: 0.17 mg/dL
GLUCOSE [4]: 154 mg/dL
LACTATE DEHYDROGENASE [4]: 115.33 u/L
LIPASE [4]: 9.33 u/L
PHOSPHORUS [4]: 10.83 mg/dL
POTASSIUM [4]: 6.02 MEQ/L
SODIUM [4]: 143.23 MEQ/L
TOTAL BILIRUBIN [4]: 0.23 mg/dL
TOTAL PROTEIN [4]: 6.03 G/DL
URIC ACID [4]: 0.8 mg/dL
ABSOLUTE BASOPHIL [5]: 0 CELLS/uL
ABSOLUTE EOSINOPHIL [5]: 0 CELLS/uL
ABSOLUTE LYMPHOCYTE [5]: 13577.67 CELLS/uL
ABSOLUTE MONOCYTE [5]: 137 CELLS/uL
ABSOLUTE SEGMENTED NEUTROPHIL [5]: 1018.67 CELLS/uL
BASOPHIL [5]: 0%
EOSINOPHIL [5]: 0%
ERYTHROCYTE COUNT [5]: 5.81 x10E6/uL
HEMATOCRIT [5]: 36.13%
HEMOGLOBIN [5]: 14.33 G/DL
LEUKOCYTE COUNT [5]: 14.73 x10E3/uL
LYMPHOCYTE [5]: 92%
MEAN CORPUSCULAR HEMOGLOBIN [5]: 24.7 pg
MEAN CORPUSCULAR HEMOGLOBIN CONCENTRATION [5]: 39.7 G/DL
MEAN CORPUSCULAR VOLUME [5]: 62.17 fL
MONOCYTE [5]: 1%
NEUTROPHIL [5]: 7%
NUCLEATED RED BLOOD CELLS [5]: 0 /100WBC
PLATELET COUNT [5]: 1276.33 x10E3/uL
ALANINE AMINOTRANSFERASE [5]: 46.33 u/L
ALBUMIN [5]: 4.3 G/DL
ALKALINE PHOSPHATASE [5]: 383.33 u/L
ASPARTATE AMINOTRANSFERASE [5]: 80.67 u/L
BLOOD UREA NITROGEN [5]: 16 mg/dL
CARBON DIOXIDE [5]: 31.67 mmol/L
CHLORIDE [5]: 101.33 MEQ/L
CHOLESTEROL [5]: 83.33 mg/dL
CREATINE PHOSPHOKINASE [5]: 216.67 u/L
CREATININE [5]: 0.17 mg/dL
GLUCOSE [5]: 166.33 mg/dL
LACTATE DEHYDROGENASE [5]: 180 u/L
LIPASE [5]: 9.33 u/L
PHOSPHORUS [5]: 13.33 mg/dL
POTASSIUM [5]: 7.09 MEQ/L
SODIUM [5]: 145.07 MEQ/L
TOTAL BILIRUBIN [5]: 0.13 mg/dL
TOTAL PROTEIN [5]: 6.3 G/DL
URIC ACID [5]: 1.93 mg/dL
